# Assay results: article PMC9355975, “Functional human cell-based vascularised cardiac tissue model for biomedical research and testing” (Scientific Reports, 2022)
# How the values were obtained:
# [1] = tested on: cardiac tissue model (hiPSC-derived cardiomyocytes co-cultured with vascular-like network); assay: Multielectrode array (MEA) field potential recording: FPD, beating frequency, Na+ spike amplitude; type: cell-based, human; conditions: for signs of cardio activity or toxicity: negative controls, up to 30 µM; for signs of cardio activity or toxicity / effect on FPD (in words): MEA; for effect on FPD (in words): acute cumulative exposure
# Experimental: Hydrophobic compounds were solubilized in DMSO as 10 mM stocks. The water-soluble compounds were solubilized in distilled water as 1 mM stocks.
# Extracellular field potentials were recorded using a Multiwell-MEA-System (Multi Channel Systems) with a 20 kHz sampling frequency on days 8–9 after cardiomyocyte seeding. The temperature was set at 37 °C and the cells were supplied with 5% CO2 during the measurements. Two-minute recordings were obtained as spontaneous baseline beating, after which the cardiac tissue models were exposed to a ½ logarithmic cumulative concentration series spanning from […] of the test compounds. With 24-well plates four replicate wells and with 96-well plates eight replicate wells were used for each compound. The wash-in period between administration of the test compounds and 2-min recording was 8 min. The field potentials were recorded with Multiwell-Screen software (Multi Channel Systems) and analysed with Multiwell-Analyzer software (Multi Channel Systems). The data from the electrodes showing clear beating patterns, sodium spike voltage change over 70 µV, and a detectable T-wave were used for the analyses. Data obtained from the electrodes of one well were averaged. In the analyses, each well was treated as an individual and (the ratio of) test compound-induced changes were calculated against the recorded baseline from the same well. The data was normalized only against the baseline values, not against the vehicle control. All the field potential durations (FPD) were corrected against the changes in beating frequency using the Fridericia formula cFPD=FPD/RR3 , where RR is the RR interval.
# For each compound, we analysed the effects on FPD, beat rate and amplitude. We selected one MEA parameter based on their mechanism of action. FPD, that corresponds to the QT interval[59], was selected for compounds that are known to affect the QT time e.g., by targeting hERG or Ca^2+ channels. Beat rate was selected for compounds that target adrenergic receptors.
# For the electrophysiology measurements, the chosen sample size was either 4 when using 24-well MEA plates with 12 electrodes per well and 8 when using 96-well MEA plates with 3 electrodes per well. The reported n stands for the number of wells (cardiac tissue models) per repetition of the study. Each test was repeated 3 times using 4–8 parallels in each concentration. Excel (Microsoft) was used for to calculate the p-values using Student’s two-tailed t-test. EC50 and IC50 values were calculated using non-linear fit four-parameters logistic equation Prism version 5.0. (GraphPad). The baseline values were used as Emin.
# QT interval [2] = conditions: cited from earlier work
# QT interval [3] = conditions: cited from earlier work; remark: listed apart in the source
# [4] = free plasma concentration from the literature; cited from earlier work
# [5] = tested on: hiPSC-derived cardiomyocytes; set-up: method as in PMID 28456566; conditions: cited from earlier work
# calcium channels = tested on: calcium channels; set-up: method as in PMID 17078945; conditions: cited from earlier work
# sodium channels = tested on: sodium channels; set-up: method as in PMID 10069689; conditions: canine atrial myocytes; cited from earlier work
# [6] = set-up: method as in PMID 6599419; conditions: humans; cited from earlier work
Structure (SMILES),Therapeutic concentration [4],other results
CC(=O)Oc1ccccc1C(=O)O [Acetyl salicylic acid],–,signs of cardio activity or toxicity [1]: None
COc1cc2nc(N(C)CCCNC(=O)C3CCCO3)nc(N)c2cc1OC (stereo not drawn) [Alfuzosin],56[21] nM,"concentration that significantly prolongs the QT interval in vitro (QT interval [2]): 300 nM; increase in FPD ([1]; at 300 nM, statistically significant): 20%; QT effect in patients (QT interval [3]; at high doses (100 nM)): mild QT increase"
COc1ccc(CCN2CCC(Nc3nc4ccccc4n3Cc3ccc(F)cc3)CC2)cc1 [Astemizole],8[21] nM,–
COc1cc(N)c(Cl)cc1C(=O)NC1CCN(CCCOc2ccc(F)cc2)CC1OC (stereo not drawn) [Cisapride],2.5[29] nM,–
C[C@H]1O[C@@H](O[C@H]2[C@@H](O)C[C@H](O[C@H]3[C@@H](O)C[C@H](O[C@H]4CC[C@@]5(C)[C@H](CC[C@@H]6[C@@H]5C[C@@H](O)[C@]5(C)[C@@H](C7=CC(=O)OC7)CC[C@]65O)C4)O[C@@H]3C)O[C@@H]2C)C[C@H](O)[C@@H]1O [Digoxin],2.8[61] nM,–
CN(CCOc1ccc(NS(C)(=O)=O)cc1)CCc1ccc(NS(C)(=O)=O)cc1 [Dofetilide],2[60] nM,–
NCCc1ccc(O)c(O)c1 [Dopamine],300 (20% increase) nM,–
COc1cccc2c1C(=O)c1c(O)c3c(c(O)c1C2=O)C[C@@](O)(C(=O)CO)C[C@@H]3O[C@H]1C[C@H](N)[C@H](O)[C@H](C)O1 [Doxorubicin],–,"changes to FPD, BPM or amplitude ([1]; short-term experiments, exposures up to 2 h): could not detect any; apoptosis of hiPSC-derived cardiomyocytes ([5]; after two days of exposure): increase; effect on FPD or beat rate ([5]; short exposures): not to affect"
CNC[C@H](O)c1ccc(O)c(O)c1 [Epinephrine],2.64[62] nM,–
O=C(CCCN1CCC(O)(c2ccc(Cl)cc2)CC1)c1ccc(F)cc1 [Haloperidol],45[60] nM,–
CCCCCCc1ccc(O)cc1O [Hexylresorcinol],–,signs of cardio activity or toxicity [1]: None
CC(C)Cc1ccc(C(C)C(=O)O)cc1 (stereo not drawn) [Ibuprofen],–,signs of cardio activity or toxicity [1]: None
CC(C)NCC(O)c1ccc(O)c(O)c1 (stereo not drawn) [Isoprenaline],0.84[63] nM,–
COC(=O)C1=C(C)NC(C)=C(C(=O)OC(C)C)C1c1cccc2nonc12 (stereo not drawn) [Isradipine],80[61] nM,–
C[C@@H]1CC(=O)NN=C1c1ccc(NN=C(C#N)C#N)cc1 [Levosimendan],129[21] nM,–
CCN(CC)CC(=O)Nc1c(C)cccc1C [Lidocaine],2500[29] nM,–
COc1c(N2C[C@@H]3CCCN[C@@H]3C2)c(F)cc2c(=O)c(C(=O)O)cn(C3CC3)c12 [Moxifloxasin],5600[60] nM,–
COC(=O)C1=C(C)NC(C)=C(C(=O)OC)C1c1ccccc1[N+](=O)[O-] [Nifedipine],190[60] nM,–
N=C(N)c1ccc(OCCCCCOc2ccc(C(=N)N)cc2)cc1 [Pentamidine],190[61] nM,effect on FPD (in words) [1]: could not detect any significant FPD prolongation
O=c1[nH]c2ccccc2n1C1CCN(CCCC(c2ccc(F)cc2)c2ccc(F)cc2)CC1 [Pimozide],3.7[61] nM,–
CC(C)NCC(O)COc1cccc2ccccc12 (stereo not drawn) [Propranolol],1095[64] nM,–
C=C[C@H]1C[N@@]2CC[C@H]1C[C@@H]2[C@@H](O)c1ccnc2ccc(OC)cc12 [Quinidine],3240[60] nM,–
COc1ccccc1OCC(O)CN1CCN(CC(=O)Nc2c(C)cccc2C)CC1 (stereo not drawn) [Ranolazine],6010[21] nM,–
CC(C)NCC(O)c1ccc(NS(C)(=O)=O)cc1 (stereo not drawn) [Sotalol],"13,000[60] nM",–
CC(C)(C)c1ccc(C(O)CCCN2CCC(C(O)(c3ccccc3)c3ccccc3)CC2)cc1 (stereo not drawn) [Terfenadine],300[21] nM,effect on FPD (in words) [1]: FPD shortening; increase in FPD before the shortening of FPD initiated ([1]; non-significant): 10%; IC50 (calcium channels): 185 nM; IC50 (sodium channels): 930 nM
CC(CC(c1ccccc1)c1ccccc1)NC(C)(C)C (stereo not drawn) [Terodiline],1800[60] nM,"EC50 ([1]; Homo sapiens, Cardiomyocyte, as rounded in the discussion, read-out: amplitude EC50 concentration): 2600 nM; effect on FPD (in words) [1]: did not detect the expected FPD prolongation; toxic plasma concentration [6]: 2.1 µM"
Cc1ccc(O)c([C@H](CCN(C(C)C)C(C)C)c2ccccc2)c1 [Tolterodine],5 nM,in vivo concentration corresponding to the QT-prolonging concentration in vitro (QT interval [2]; very high concentration in vitro): 340 nM; QT interval in clinical use (QT interval [3]): does not prolong the QT interval
